Columns and labels:
5×FAD mice = assay: Morris water maze (MWM); type: in vivo, mouse
Protocol: Parathyroid hormone (human) was purchased from TOCRIS Bioscience (Cat #3011/1, Abingdon, United Kingdom). […] Mice were then subjected to behavioral tests and sacrificed for examinations of their bone and brain phenotypes at the indicated ages. For Morris water maze (MWM), a circular water tank (diameter of 120 cm) fulfilled with water and a 10 cm platform were used. Non-toxic white powder paint was added to water to make the surface opaque to hide the escape platform. The maze was virtually divided into 4 quadrants, one of which contained the platform 1 cm below the water surface as an escape platform. Mice were trained for 5 days, four trials per day with 20 min intervals between trials and 60 s per trial to locate the hidden platform. Then mice were left on the platform for 15 s to help them remember the location. On the 6th day, the escape platform was removed and mice were placed in water at the point farthest from the platform and recorded for 60 s. The swimming track was recorded using a video tracking system, and the time spent in each platform quadrant and the number of platform crossings were quantified. All behavioral trials were recorded by use of an overhead camera and analyzed by Etho Vision software (Etho Vision, Noldus). Mice were assigned and data were quantified, in a double-blind method.

GFAP+ astrocytes = assay: Co-immunostaining ThioS/GFAP, reactive astrocytes; type: in vivo, mouse
Protocol: (§1) Parathyroid hormone (human) was purchased from TOCRIS Bioscience (Cat #3011/1, Abingdon, United Kingdom). WT or 5×FAD mice (both male and female) were treated with PTH1-34 intermittently [once daily injection of hPTH1-34 (50 μg/Kg) or vehicle (0.9% sodium chloride) (as a control) by subcutaneous injection, starting at 2-MO, 5 days per week] as described previously. Mice were then subjected to behavioral tests and sacrificed for examinations of their bone and brain phenotypes at the indicated ages.
DAPI was used for nucleus staining.

IBA1 and GFAP = assay: Western blot of IBA1 and GFAP in cortex and hippocampus homogenates; type: in vivo, mouse; settings: 5×FAD brain homogenates (cortex and hippocampus), 6-MO female
Protocol: as §1
Total proteins from cortex, hippocampus, or cultured astrocytes were extracted using RIPA lysis buffer [50 mM Tris-HCl (pH7.5), 150 mM NaCl, 1 mM EDTA, 1% v/v NP-40, 0.1% SDS, 1% sodium deoxycholate supplemented with Protease Inhibitor Cocktail (Roche) and 1 mM PMSF] and analyzed by Western Blot. Lysates were cleared by centrifugation at 12,000 g for 15 min at 4° C. to remove debris and to obtain homogenates. Homogenates samples were resolved by SDS-PAGE (8˜15%) gels and then electroblotted onto nitrocellulose membranes (Cat #1620112, Bio-Rad Laboratories). […] After washing with TBST 3 times, antibody reactivity was detected by the Enhanced Chemiluminescence (ECL) detection system (Amersham Biosciences). Band density of proteins was normalized in relation to loading control and analyzed using NIH ImageJ software. […]

[1] = tested on: serum inflammatory cytokines; assay: Mouse serum cytokine array; type: in vivo
Protocol: as §1
Serum samples from 5×FAD, Tg2576, and their WT control female mice (6˜MO) were collected and used for serum cytokine detection. Cytokines were measured with Mouse Cytokine Array Panel A (R&D Systems, cat #ARY006, Minneapolis, MN, USA). Briefly, the mixture of serum and the biotinylated detection antibodies cocktail is incubated with a Mouse Cytokine Array membrane. Any cytokine/detection antibody complex present was bound on the membrane by its cognate immobilized capture antibody. After washing off the unbound protein, streptavidin-horseradish peroxidase and chemiluminescent detection reagents were added to generate light signals. The light produced at each spot is proportional to the amount of cytokine binding.

5×FAD astrocytes = assay: RT-qPCR of cytokines and chemokines in cultured astrocytes; type: cell-based, mouse; settings: cultured 5×FAD astrocytes, 100 ng/ml, 24 h
Protocol: Total RNA was extracted from cortex, hippocampus, or cultured astrocytes using a TRizol reagent (Invitrogen, cat #15596-026, Carlsbad, CA, USA) as previously described. Purified RNA (1-5 μg) was used for cDNA synthesis with the Revert Aid First Strand cDNA Synthesis Kit (Thermo Scientific, cat #K1621, Waltham, MA, USA). The cDNA products were subjected to subsequent quantitative PCR (qPCR) using the QuantiFast SYBR Green PCR Kit (QIA-GEN, cat #204057, Hilden, Germany) with a qPCR System (StepOne Plus). Each sample was repeated at least 3 times, and the mRNA level was normalized to GAPDH using the 2^−ΔΔCt method.
Astrocyte culture was performed according to the standard protocol with some modifications as described in previous literature. In brief, the cerebral cortex and hippocampus of postnatal day 3 (P3) female pups were dissected under a stereomicroscope and placed in ice-cold calcium- and magnesium-free HBSS (Hanks Balanced Salt Solution). The tissues were digested with 2.5% trypsin-EDTA, 3 ml for each mouse, at 37° C. for 20 min with shaking slightly every 5 min. The digested tissue was blown into single-cell suspension, filtered through a […] filter mesh, pelleted at 900×g for 5 min, and resuspended in growth medium (DMEM plus 10% FBS), which was incubated at 37° C. with 5% CO2. […]

SMILES: CC[C@H](C)[C@H](NC(=O)[C@H](CCC(=O)O)NC(=O)[C@H](CO)NC(=O)[C@@H](NC(=O)[C@@H](N)CO)C(C)C)C(=O)N[C@@H](CCC(N)=O)C(=O)N[C@@H](CC(C)C)C(=O)N[C@@H](CCSC)C(=O)N[C@@H](Cc1cnc[nH]1)C(=O)N[C@@H](CC(N)=O)C(=O)N[C@@H](CC(C)C)C(=O)NCC(=O)N[C@@H](CCCCN)C(=O)N[C@@H](Cc1cnc[nH]1)C(=O)N[C@@H](CC(C)C)C(=O)N[C@@H](CC(N)=O)C(=O)N[C@@H](CO)C(=O)N[C@@H](CCSC)C(=O)N[C@@H](CCC(=O)O)C(=O)N[C@@H](CCCN=C(N)N)C(=O)N[C@H](C(=O)N[C@@H](CCC(=O)O)C(=O)N[C@@H](Cc1c[nH]c2ccccc12)C(=O)N[C@@H](CC(C)C)C(=O)N[C@@H](CCCN=C(N)N)C(=O)N[C@@H](CCCCN)C(=O)N[C@@H](CCCCN)C(=O)N[C@@H](CC(C)C)C(=O)N[C@@H](CCC(N)=O)C(=O)N[C@@H](CC(=O)O)C(=O)N[C@H](C(=O)N[C@@H](Cc1cnc[nH]1)C(=O)N[C@@H](CC(N)=O)C(=O)N[C@@H](Cc1ccccc1)C(=O)O)C(C)C)C(C)C [PTH1-34]
- MWM, latency to reach hidden platform during training (5×FAD mice; 5×FAD female mice ~5-MO vs 5×FAD Veh): faster learning of the hidden platform during MWM tests
- MWM, spatial memory (time in target quadrant, target zone crossovers) (5×FAD mice; 5×FAD female mice ~5-MO vs 5×FAD Veh, testing day): better spatial memory of the platform location
- MWM, spatial learning and memory (5×FAD mice; 5×FAD male mice ~5-MO vs Veh): Little to no improvement
- inhibition of glial cell activation (GFAP, IBA1), by sex (GFAP+ astrocytes; female and male 5×FAD mice, 6-MO): detectable in both female and male 5×FAD mice
- GFAP+ fluorescence intensity (GFAP+ astrocytes; layers of cortex (except layer II/III) and DG region of hippocampus, ~6 MO female 5×FAD vs Veh): lower in PTH1-34 treated 5×FAD mice than that of Veh controls
- effect on glial cells (GFAP, IBA1) (GFAP+ astrocytes; wild-type (WT) female mice, 6-MO): little effect
- plaque-associated GFAP fluorescence (GFAP+ astrocytes; ~6 MO female 5×FAD cortex and hippocampus vs Veh): diminished
- GFAP protein level (Western blot) (IBA1 and GFAP): lower
- IBA1 protein level (Western blot) (IBA1 and GFAP): lower
- elevated serum factors (IL-1rα, IL-2, IL-3, IL-4, IL-10, CXCL9, CCL3) ([1]; 6-MO 5×FAD female mice): all reduced
- serum inflammation-associated factors IL1β, TNFα, TREM-1, CCL11, CCL5 ([1]; 6-MO 5×FAD female mice): reduced
- serum factor CCL4 ([1]; 6-MO 5×FAD female mice (CCL4 decreased in 5×FAD)): restored
- expression of cytokines or chemokines (TNF-α, TGF-β1, CCL5, GM-CSF, RANK) (5×FAD astrocytes): Nearly all these factors (except GM CSF) were reduced

— US20240299504A1, “COMPOSITIONS AND METHODS FOR TREATING ALZHEIMERS DISEASE” (priority 2023, published 2024)
